According to patent publication US6218384A, “3-Oxo-pyrido(1,2-a)benzimidazole-4-carboxyl and 4-oxo-azepino(1,2-a)benzimidazole-5-carboxyl derivatives useful in treating central nervous system disorders” (Ortho-McNeil Pharmaceutical, Inc., priority 1997, dated 2001):
Where two headings read alike, the source gives them in different places.

Key:
[1] = Suppression of anxiety (punished licking, conflict test) in the adult male rat; format: in vivo, male rats
Protocol: The anxiolytic activity of selected compounds of the invention was assessed by determining their ability to release (disinhibit) behavior that had been suppressed by punishment (Vogel, J. R. et al. Psychopharmacology 1971, 21, 1). Male rats were deprived of water for 48 hours and were deprived of food for 24 hours prior to testing. After the first 24 hours of water deprivation, they were placed in the conflict chamber for a training period; wherein, they were allowed 200 unpunished licks from a bottle containing tap water. The experiment was run the next day. At the expected time of peak activity, the animals were placed in the chamber and allowed access to tap water. […] Their first lick initiates a 3-min test session. Subsequently,every 20th lick was punished by a 0.2-s shock delivered via the stainless-steel drinking-tube. Vehicle-treated control animals generally were willing to accept a median number of 3 to 8 shocks per test session. […] The Wilcoxon rank-sum test (Mann-WhitneyU-test) was used to test for an increase (p<0.05, 1-tailed) in the median number of shocks in drug-treated groups, compared to a concurrently run vehicle-treated group. The biological assay is considered to be valid if the effects of a known anxiolytic (positive control) are detected, within the same experiment. A compound was considered active if there is a significant difference in the median number of shocks tolerated between the drug-treated group and the control group. The MED was defined as the minimum dose of the drug-treatment as analyzed using the Wilcoxon rank-sum test (SAS; Statistical Analysis System, version 5.16). If the MED value is greater than 10, an active dose of the compound being tested had not been determined.

[2] = Suppression of metrazol-induced convulsions; format: in vivo, male CD1 mice; conditions: Mus musculus, 0.5 h, mice
Protocol: Selected compounds of the invention were tested for their ability to reduce metrazol-induced convulsions in mice (Swinyard, E. A. J. Am. Pharm Assoc. 1949, 38, 201). Male CD1 mice, were fasted at least 16 hours, were divided into equal groups and test compounds or vehicle were administered parenterally. Water was not withheld except during the period of observations. At the time of suspected peak activity, anti-pentylenetetrazol (anti-metrazol) activity was evaluated by the subcutaneous administration of the CD90 dose of metrazol (the dose of metrazol was determined from the dose-response curve producing clonic convulsions in 90% of animals that received the corresponding vehicle for this experiment). Metrazol was dissolved in 0.9% sodium chloride solution, and its dose volume was 10 ml/kg. Animals were housed individually for observation of clonic convulsions, tonic convulsions and death for a period of 30 min. Test compounds that blocked the clonic seizure component of the convulsion in at least 50% of the animals were considered active. The biological assay was considered to be valid if the effects of a known anticonvulsant (positive control) were detected, within the same experiment. Activity was reported as percent reduction of clonic convulsions from the vehicle group. The ED50 values of active compounds were calculated by the method of probits (Finney, D. J. 1971. Probit Analysis. London: Cambridge University Press) and are listed in Tables 1 to 5.

[3] = molecular target: benzodiazepine site of the GABA-A receptor; assay: Benzodiazepine Receptor Binding Assay (inhibition of 3H-flunitrazepam binding); conditions: ca. 3 nM 3H-flunitrazepam
[4] = Table 1, ip, minimum effective dose, >10 = active dose not determined, read-out: Conflict (ip) MED
[5] = Table 1, ip, clonic convulsions after sc CD90 metrazol, >30 = active dose not determined, read-out: Metrazol (ip) ED50
[6] = Table 1, 25° C., 10-20 min, >10,000 = not active
[7] = Table 3, minimum effective dose, read-out: Conflict MED
[8] = Table 3, parenteral, clonic convulsions, read-out: Antimetrazol ED50
[9] = Table 5, minimum effective dose, read-out: Conflict MED
[10] = Table 5, parenteral, clonic convulsions, read-out: Antimetrazol ED50

Row | SMILES | minimal effective dose [1, 4] [mg/kg] | ED50 [2, 5] [mg/kg] | IC50 [3, 6] [nM] | further results
1 | Cc1cnccc1NC(=O)C1=C2Nc3ccccc3N2CCC1=O [compound 77] | > 10 | > 10 | 7100 | –
2 | O=C1CCN2C(=C1C(=O)NN1CCOCC1)Nc1ccccc12 [compound 60] | < 10 | > 10 | 3000 | –
3 | O=C1CCN2C(=C1C(=O)Nc1ccc3[nH]nnc3c1)Nc1ccccc12 [compound 73] | > 10 | > 10 | 160 | –
4 | CCCN1C2=C(C(=O)Nc3ccccc3)C(=O)CCN2c2ccccc21 [compound 136] | – | – | – | minimal effective dose [1, 7]: 10 mg/kg; ED50 [2, 8]: 1 mg/kg; IC50 ([3]; Table 3): 2.5 nM
5 | O=C1CCN2C(=C1C(=O)Nc1ccccn1)Nc1ccccc12 [compound 22] | 10 | 10 | 59 | –
6 | O=C1CCN2C(=C1C(=O)Nc1ccncc1)Nc1cc(Cl)ccc12 [compound 82] | > 10 | 3 | 380 | –
7 | O=C1CCN2C(=C1C(=O)NCCc1ccccc1)Nc1ccccc12 [compound 2] | > 10 | 10 to 30 | 280 | –
8 | O=C1CCN2C(=C1C(=O)Nc1ccc(F)cc1)Nc1ccccc12 [compound 45] | 10 | > 30 | 430 | –
9 | COc1ccccc1NC(=O)C1=C2Nc3ccccc3N2CCC1=O [compound 26] | > 10 | > 10 | 990 | –
10 | O=C1CCN2C(=C1C(=O)Nc1c(F)cccc1F)Nc1ccccc12 [compound 36] | 0.1 | 1 | 2.8 | –
11 | CCN1C2=C(C(=O)Nc3ccc(N(C)C)cc3)C(=O)CCN2c2ccccc21 [compound 125] | – | – | – | minimal effective dose [1, 7]: > 10 mg/kg; ED50 [2, 8]: 0.3 mg/kg; IC50 ([3]; Table 3): 72 nM
12 | CNC(=O)C1=C2Nc3ccccc3N2CCC1=O [compound 102] | > 10 | > 10 | 400 | –
13 | COc1ccc2c(c1)NC1=C(C(=O)Nc3ccccc3)C(=O)CCN12 [compound 12] | > 10 | 3 | 40 | –
14 | Cc1nnc(NC(=O)C2=C3Nc4ccccc4N3CCC2=O)s1 [compound 64] | > 10 | > 10 | 1100 | –
15 | Cc1cc(NC(=O)C2=C3Nc4ccccc4N3CCC2=O)c2ccccc2n1 [compound 76] | > 10 | 10 | 10000 | –
16 | CN1C2=C(C(=O)Nc3c(F)cc(F)cc3F)C(=O)CCCN2c2ccccc21 [compound 157] | – | – | – | minimal effective dose [1, 9]: > 10 mg/kg; ED50 [2, 10]: > 10 mg/kg; IC50 ([3]; Table 5): 53 nM
17 | O=C1CCN2C(=C1C(=O)Nc1ccc(F)c(F)c1F)Nc1ccccc12 [compound 96] | > 10 | > 10 | 1500 | –
18 | O=C1CCCN2C(=C1C(=O)Nc1ccccc1)N(Cc1ccccc1)c1ccccc12 [compound 145] | – | – | – | minimal effective dose [1, 9]: > 10 mg/kg; ED50 [2, 10]: > 10 mg/kg; IC50 ([3]; Table 5): 420 nM
19 | O=C1CCN2C(=C1C(=O)Nc1c(F)cc(F)cc1Br)Nc1ccccc12 [compound 103] | > 10 | > 10 | 1200 | –
20 | CSc1ccc(NC(=O)C2=C3Nc4ccccc4N3CCC2=O)cc1 [compound 23] | > 10 | 10 | 400 | –
21 | Cc1cccc2c1NC1=C(C(=O)Nc3ccncc3)C(=O)CCN12 [compound 88] | > 10 | 10 | 390 | –
22 | Cn1c2ccccc2n2ccc(=O)c(C(=O)Nc3ccccc3)c12 [compound 142] | – | – | – | minimal effective dose ([1]; Table 4, minimum effective dose, read-out: Conflict MED): < 1 mg/kg; ED50 ([2]; Table 4, parenteral, clonic convulsions, read-out: Antimetrazol ED50): < 1 mg/kg; IC50 ([3]; Table 4): 45 nM
23 | CC1CN2C(=C(C(=O)Nc3ccccc3)C1=O)N(C)c1ccccc12 (stereo not drawn) [compound 134] | – | – | – | minimal effective dose [1, 7]: > 10 mg/kg; ED50 [2, 8]: 3 mg/kg; IC50 ([3]; Table 3): 67 nM
24 | O=C1CCN2C(=C1C(=O)Nc1ccccc1Cl)Nc1ccccc12 [compound 25] | 10 | 1 | 12 | –
